Data as given in ChEMBL document CHEMBL5465560, “Selectivity Literature for EUbOPEN Chemogenomic Library” (2024).

What was measured:
[1] = biological target: Mitogen-activated protein kinase kinase kinase kinase 1 (Homo sapiens) (UniProt Q92918); details: at 10 µM
[2] = biological target: Tyrosine-protein kinase ABL2 (Homo sapiens, UniProt P42684); test: Selectivity interaction (ActivX KiNativ screen (kinase selectivity in THP-1 cell lysates)) EUB0000639a ABL2; type: subcellular; details: lysate, at 0.2 µM
Sequence of Tyrosine-protein kinase ABL2 (P42684 whole entry): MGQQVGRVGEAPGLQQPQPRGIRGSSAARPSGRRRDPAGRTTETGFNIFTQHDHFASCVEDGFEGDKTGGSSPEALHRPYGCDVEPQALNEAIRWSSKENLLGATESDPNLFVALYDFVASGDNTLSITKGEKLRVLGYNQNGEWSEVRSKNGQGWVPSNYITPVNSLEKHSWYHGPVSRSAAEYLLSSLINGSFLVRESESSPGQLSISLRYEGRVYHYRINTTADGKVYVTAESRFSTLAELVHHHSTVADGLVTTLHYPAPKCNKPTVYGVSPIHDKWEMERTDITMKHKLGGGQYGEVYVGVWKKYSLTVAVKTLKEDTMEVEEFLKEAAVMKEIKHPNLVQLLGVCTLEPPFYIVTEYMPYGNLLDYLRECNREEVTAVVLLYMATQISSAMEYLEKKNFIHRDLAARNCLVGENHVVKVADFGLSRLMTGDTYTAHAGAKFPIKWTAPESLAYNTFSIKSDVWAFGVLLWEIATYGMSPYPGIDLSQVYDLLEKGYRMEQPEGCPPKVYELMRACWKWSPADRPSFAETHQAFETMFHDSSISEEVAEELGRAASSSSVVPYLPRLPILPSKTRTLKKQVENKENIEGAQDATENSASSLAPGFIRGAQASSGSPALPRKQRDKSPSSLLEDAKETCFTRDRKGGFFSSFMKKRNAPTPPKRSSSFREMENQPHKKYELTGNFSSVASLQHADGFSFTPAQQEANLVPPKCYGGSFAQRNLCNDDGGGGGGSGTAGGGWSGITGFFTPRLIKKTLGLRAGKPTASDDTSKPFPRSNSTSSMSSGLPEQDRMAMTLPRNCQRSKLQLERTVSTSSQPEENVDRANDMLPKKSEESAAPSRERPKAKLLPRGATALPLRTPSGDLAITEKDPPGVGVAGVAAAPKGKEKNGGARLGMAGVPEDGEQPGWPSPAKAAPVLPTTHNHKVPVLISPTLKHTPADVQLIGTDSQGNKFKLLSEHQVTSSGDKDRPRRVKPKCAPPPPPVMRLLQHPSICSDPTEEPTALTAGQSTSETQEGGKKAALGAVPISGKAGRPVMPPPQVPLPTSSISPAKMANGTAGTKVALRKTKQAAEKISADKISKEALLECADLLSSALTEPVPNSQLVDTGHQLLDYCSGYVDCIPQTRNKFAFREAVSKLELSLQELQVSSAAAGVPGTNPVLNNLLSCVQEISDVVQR

[3] = biological target: T1, Serine/threonine-protein kinase greatwall (Homo sapiens) (UniProt Q96GX5); test: Selectivity interaction (ActivX KiNativ screen (kinase selectivity in THP-1 cell lysates)) EUB0000639a MASTL; type: subcellular; details: lysate, at 0.04 µM
T1 sequence (whole entry): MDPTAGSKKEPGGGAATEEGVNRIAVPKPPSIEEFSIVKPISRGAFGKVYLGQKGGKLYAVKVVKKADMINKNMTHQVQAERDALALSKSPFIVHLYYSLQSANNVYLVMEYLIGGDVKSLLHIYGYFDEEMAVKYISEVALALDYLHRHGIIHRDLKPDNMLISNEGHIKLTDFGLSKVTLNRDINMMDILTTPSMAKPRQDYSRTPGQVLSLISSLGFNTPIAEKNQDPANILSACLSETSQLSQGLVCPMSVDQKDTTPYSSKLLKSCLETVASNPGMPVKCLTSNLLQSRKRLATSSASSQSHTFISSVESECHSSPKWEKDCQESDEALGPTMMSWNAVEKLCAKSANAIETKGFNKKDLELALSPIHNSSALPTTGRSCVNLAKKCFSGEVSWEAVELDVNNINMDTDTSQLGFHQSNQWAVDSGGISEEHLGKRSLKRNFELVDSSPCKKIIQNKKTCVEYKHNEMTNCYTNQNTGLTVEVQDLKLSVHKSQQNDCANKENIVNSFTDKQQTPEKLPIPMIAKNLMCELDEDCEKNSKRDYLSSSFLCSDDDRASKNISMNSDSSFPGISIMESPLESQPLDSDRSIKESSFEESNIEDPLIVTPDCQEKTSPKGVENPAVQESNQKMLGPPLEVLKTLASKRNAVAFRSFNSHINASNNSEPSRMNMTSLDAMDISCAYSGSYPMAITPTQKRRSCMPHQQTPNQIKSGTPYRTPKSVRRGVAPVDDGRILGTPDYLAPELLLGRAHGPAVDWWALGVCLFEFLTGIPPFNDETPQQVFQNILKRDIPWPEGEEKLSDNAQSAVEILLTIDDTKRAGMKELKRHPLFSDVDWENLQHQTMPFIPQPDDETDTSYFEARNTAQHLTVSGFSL

[4] = biological target: T2, Serine/threonine-protein kinase TAO1 (Homo sapiens) (UniProt Q7L7X3); test: Selectivity interaction (KinomeScan (DiscoverX)) EUB0000695a TAOK1; details: at 100 nM
T2 sequence (whole entry): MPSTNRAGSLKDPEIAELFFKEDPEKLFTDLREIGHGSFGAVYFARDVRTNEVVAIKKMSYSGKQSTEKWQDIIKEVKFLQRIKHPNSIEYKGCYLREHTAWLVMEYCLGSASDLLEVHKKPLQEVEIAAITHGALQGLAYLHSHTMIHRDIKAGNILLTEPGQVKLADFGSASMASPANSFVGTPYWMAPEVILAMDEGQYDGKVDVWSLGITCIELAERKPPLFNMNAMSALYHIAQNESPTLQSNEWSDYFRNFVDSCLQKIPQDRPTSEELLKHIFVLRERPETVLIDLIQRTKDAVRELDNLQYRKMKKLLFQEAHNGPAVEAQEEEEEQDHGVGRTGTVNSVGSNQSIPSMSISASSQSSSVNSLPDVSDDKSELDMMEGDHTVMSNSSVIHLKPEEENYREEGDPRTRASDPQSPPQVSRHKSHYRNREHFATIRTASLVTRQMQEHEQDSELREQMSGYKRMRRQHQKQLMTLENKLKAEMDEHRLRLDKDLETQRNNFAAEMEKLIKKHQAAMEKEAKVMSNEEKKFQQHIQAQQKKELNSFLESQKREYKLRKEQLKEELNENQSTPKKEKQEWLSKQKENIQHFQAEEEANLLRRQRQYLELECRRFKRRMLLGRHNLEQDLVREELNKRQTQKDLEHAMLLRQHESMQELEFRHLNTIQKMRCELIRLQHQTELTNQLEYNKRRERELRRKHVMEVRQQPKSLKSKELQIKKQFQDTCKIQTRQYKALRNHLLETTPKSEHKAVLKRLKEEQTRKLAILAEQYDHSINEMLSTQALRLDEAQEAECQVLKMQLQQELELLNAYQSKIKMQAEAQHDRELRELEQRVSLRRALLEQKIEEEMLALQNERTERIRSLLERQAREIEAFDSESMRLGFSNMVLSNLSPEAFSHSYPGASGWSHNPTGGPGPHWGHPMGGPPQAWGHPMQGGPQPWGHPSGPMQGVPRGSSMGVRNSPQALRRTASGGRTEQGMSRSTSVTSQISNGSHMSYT

[5] = biological target: Cyclin-dependent kinase 7 (Homo sapiens, UniProt P50613); test: Selectivity interaction (KinomeScan (DiscoverX)) EUB0001079a CDK7; details: at 1 µM
Sequence of Cyclin-dependent kinase 7 (P50613 whole entry): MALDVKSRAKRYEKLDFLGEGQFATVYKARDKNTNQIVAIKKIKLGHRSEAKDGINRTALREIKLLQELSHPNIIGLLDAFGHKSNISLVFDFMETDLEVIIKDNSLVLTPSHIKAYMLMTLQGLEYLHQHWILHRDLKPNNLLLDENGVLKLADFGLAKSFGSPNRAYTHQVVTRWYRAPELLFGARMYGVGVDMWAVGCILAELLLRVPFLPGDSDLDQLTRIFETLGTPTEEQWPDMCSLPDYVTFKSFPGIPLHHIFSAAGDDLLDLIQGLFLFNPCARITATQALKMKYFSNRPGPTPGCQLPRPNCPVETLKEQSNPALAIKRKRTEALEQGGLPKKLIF

[6] = biological target: Nucleosome-remodeling factor subunit BPTF (Homo sapiens, UniProt Q12830); test: Selectivity interaction (Human bromodomain panel (DSF assay)) EUB0000233b BPTF
[7] = biological target: T3, Serine/threonine-protein kinase haspin (Homo sapiens) (UniProt Q8TF76); test: Selectivity interaction (Kinase panel (DSF assay)) EUB0001558a GSG2
T3 sequence (whole entry): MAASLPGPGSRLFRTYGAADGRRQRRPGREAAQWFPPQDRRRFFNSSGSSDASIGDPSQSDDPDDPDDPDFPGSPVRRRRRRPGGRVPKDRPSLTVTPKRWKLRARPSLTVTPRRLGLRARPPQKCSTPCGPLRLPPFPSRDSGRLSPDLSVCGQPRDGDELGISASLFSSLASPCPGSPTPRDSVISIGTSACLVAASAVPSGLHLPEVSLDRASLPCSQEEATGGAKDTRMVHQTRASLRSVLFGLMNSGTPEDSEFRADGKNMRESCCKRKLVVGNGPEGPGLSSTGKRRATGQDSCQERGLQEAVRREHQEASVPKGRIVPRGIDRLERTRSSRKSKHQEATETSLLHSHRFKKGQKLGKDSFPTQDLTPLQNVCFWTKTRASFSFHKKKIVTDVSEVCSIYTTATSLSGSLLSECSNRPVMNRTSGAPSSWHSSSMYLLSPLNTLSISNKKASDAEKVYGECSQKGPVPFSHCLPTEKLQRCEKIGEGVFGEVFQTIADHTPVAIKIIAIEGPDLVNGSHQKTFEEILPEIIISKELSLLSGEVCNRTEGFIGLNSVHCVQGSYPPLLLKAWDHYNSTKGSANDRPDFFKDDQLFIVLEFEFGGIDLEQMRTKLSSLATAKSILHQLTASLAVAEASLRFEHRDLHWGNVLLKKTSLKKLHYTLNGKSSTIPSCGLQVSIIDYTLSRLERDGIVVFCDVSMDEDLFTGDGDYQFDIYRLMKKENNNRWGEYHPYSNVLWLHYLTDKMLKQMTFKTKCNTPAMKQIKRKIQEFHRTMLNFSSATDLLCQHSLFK

Sequence of Mitogen-activated protein kinase kinase kinase kinase 1 (Homo sapiens) (Q92918 whole entry, looked up): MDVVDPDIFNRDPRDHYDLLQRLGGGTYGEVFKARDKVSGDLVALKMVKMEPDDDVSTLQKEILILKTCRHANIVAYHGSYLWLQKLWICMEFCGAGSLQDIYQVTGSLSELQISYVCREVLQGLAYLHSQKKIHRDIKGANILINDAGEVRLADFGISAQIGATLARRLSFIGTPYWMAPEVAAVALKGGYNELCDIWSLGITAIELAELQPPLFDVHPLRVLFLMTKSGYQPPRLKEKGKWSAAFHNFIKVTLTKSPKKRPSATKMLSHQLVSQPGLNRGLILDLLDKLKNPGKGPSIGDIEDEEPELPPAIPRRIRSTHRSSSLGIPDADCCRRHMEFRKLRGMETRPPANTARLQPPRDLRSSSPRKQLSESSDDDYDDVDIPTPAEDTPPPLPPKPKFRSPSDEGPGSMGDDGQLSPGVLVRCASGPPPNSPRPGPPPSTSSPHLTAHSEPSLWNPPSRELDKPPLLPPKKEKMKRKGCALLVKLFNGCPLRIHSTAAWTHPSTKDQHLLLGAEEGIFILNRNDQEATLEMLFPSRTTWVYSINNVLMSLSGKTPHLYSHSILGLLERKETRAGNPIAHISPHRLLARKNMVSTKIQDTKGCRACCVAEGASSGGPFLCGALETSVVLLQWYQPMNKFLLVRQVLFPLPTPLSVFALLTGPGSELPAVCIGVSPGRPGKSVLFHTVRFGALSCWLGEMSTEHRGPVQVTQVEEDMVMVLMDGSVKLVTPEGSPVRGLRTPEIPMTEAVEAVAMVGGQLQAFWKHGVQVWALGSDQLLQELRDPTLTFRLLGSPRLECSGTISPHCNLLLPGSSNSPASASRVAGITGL

**Q.** For `Cc1cc([C@@H](C)Nc2ccccc2C(=O)O)c2nc(N3CCOCC3)cc(=O)n2c1` [AZD-6482], which % of control [1] is on record?
**A.** 100%

**Q.** For `CC[C@@H]1[C@H](F)C(=O)N[C@@H]1COc1nccc2cc(C(N)=O)c(OC)cc12` [ZIMLOVISERTIB], which % of inhibition [2] is on record?
**A.** -42.6%

**Q.** And the % of inhibition [3]?
**A.** 3.9%

**Q.** With `Cc1cc(F)c(C(=O)Nc2cccc(-c3nncn3C(C)C)n2)cc1-n1cnc(C2CC2)c1` as the compound, how does the % of control [4] read?
**A.** 100%

**Q.** `Nc1cnc(N2CCc3cc(S(=O)(=O)Nc4c(F)cc(Cl)cc4F)cc(N4CCCC4=O)c32)nc1` [TP-020n] was tested. Which % of control [5] did it give?
**A.** 100%

**Q.** `CN(C)CCCOc1ccc(-c2cc(NCCCn3cccn3)nc(S(C)(=O)=O)n2)cc1` was tested. Which dTM [6] did it give?
**A.** 3.8 K

**Q.** How did the dTM [7] turn out when `CC(C)(O)[C@H](F)CN1Cc2cc(NC(=O)c3cnn4cccnc34)c(N3CCOCC3)cc2C1=O` was run?
**A.** 0.8 K
